Data as given in patent US11332440B2, “4-oxo-alkylated tetramic acid compound, and preparation method thereof” (priority 2017, dated 2022).
“Also recorded” adds a separate entry of the source. Where two headings read alike, the source gives them in different places.

Tests used:
[1] = MTD experiment, dose gradient by gavage; type: in vivo; details: both sexes, mouse, in vivo, po, CR mice, by gavage, read-out: maximum tolerance (MTD)
Procedure: (§1) Mice are commonly used rodents to evaluate the toxicity of a test sample and are also an important part of early preclinical safety evaluation. In this experiment, the toxicity of compound 50561 was tested by administering a dose gradient thereof to the mice by gavage and observing its toxicity.
(§2) This experiment was designed such that for each dose centration, 10 mice were tested, including half males and half females. The males each weighed about 18-23 grams, and the females each weighed about 17-21 grams. They were randomly grouped by a simple randomization procedure. All the animals used in the experiment weighed between ±20% of the average body weight of their respective genders. If there are not enough animals in the study to meet the weight range required thereby, notify the responsible person of the project to take reasonable measures. Animals must be adapted to the laboratory for at least three days. During this period, daily cage observation was conducted once a day, and a detailed clinical observation was necessary before the experiment. Any animal with symptoms or physical abnormalities would be reported to the attending veterinarian and responsible person of the project, and excluded whenever possible. Animals suitable for experimentation will be assigned to respective experimental groups according to the random grouping method described above.
(§3) During the experiment, after administration, all animals were observed continuously for 4 hours; from the end of administration till 3 days thereafter, observations were carried out twice each day, one in the morning and the other in the afternoon; and then observation was carried out once a day. Observations included but were not limited to: skin, hair, eyes, ears, nose, mouth, chest, abdomen, external genitals, limbs, and feet. The respiratory and circulatory systems, autonomic effects (such as salivation), and nervous system (such as tremors, convulsions, stress responses, and abnormal behaviors) should be focused on. Complete anatomical examinations would be performed on all animals that had died, were dying, or planned to be euthanized. Animals found dead outside of fixed working hours could be placed in the refrigerator overnight and dissected immediately on the next working day. At the end of the experiment (14th day after administration), all animals requiring autopsy would be euthanized and autopsied.
(§4) External abnormalities in animals, such as palpable masses, should be examined in detail. The skin would be cut along the midline of the abdomen, and any subcutaneous mass would be confirmed in conjunction with the findings in the observations of animal symptoms. […] Diseased organs were removed, weighed, recoded, and kept in a fixative fluid.

[2] = system: CR mice; assay: MTD experiment, dose gradient by gavage; type: in vivo
Procedure: as §1, §2, §3, §4

[3] = system: Salmonella typhimurium TA98; assay: Mini Ames experiment, strain TA98; type: cell-based; details: TA98, regardless of the presence or absence of S9
Procedure: Histidine auxotrophic strains of Salmonella typhimurium were cultured in a special medium with quite a low content of histidine. The strains were difficult to divide due to lack of nutrition. If a test compound has mutagenicity, a large number of cells will undergo reverse mutation, synthesizing histidine by themselves and developing into colonies visible to the naked eye. In view of the close relationship between mutagenicity and carcinogenesis of chemicals, this method has been widely used in screening carcinogens. Some chemicals need metabolic activation to induce mutagenicity. Mammalian microsomal enzyme S9 can be added into the test system to eliminate the influence of metabolic activation on generation of mutagenicity.
[…] Mini Ames test with compound 50561

**Q.** For `O=C1C=C(OCc2ccc(F)cc2)[C@H](Cc2ccccc2)N1` [Compound 50561], which MTD at 14 days ([1]; CR) is on record?
**A.** < 500 mg/kg

**Q.** What about the MTD at 14 days [1] of the same compound?
**A.** ≥ 250 mg/kg

**Q.** And the Body weight decreased ([2]; 250 mg/kg by gavage)?
**A.** Body weight decreased by about 2 g, which

**Q.** What about the Remarks ([2]; 250 mg/kg by gavage) of the same compound?
**A.** in good condition.

**Q.** What about the Body weight decreased ([2]; 500 mg/kg by gavage) of the same compound?
**A.** Body weight decreased by about 2 g;

**Q.** And the Remarks ([2]; 500 mg/kg by gavage)?
**A.** individual activity decreased; and the body

**Q.** What about the Remarks ([2]; 750 mg/kg by gavage) of the same compound?
**A.** No abnormality of organs in dead individuals.

**Q.** What about the Remarks ([2]; 1000 mg/kg by gavage) of the same compound?
**A.** No abnormality of organs in dead individuals.

**Q.** And the “change in the number of colonies / mutagenicity” value [3]?
**A.** did not cause more than twice of a change in the number of colonies; also recorded: no obvious mutagenicity
